{"source": "ChEMBL document CHEMBL1151757", "about": "“Synthesis, radiosynthesis, and biological evaluation of fluorine-18-labeled 2beta-carbo(fluoroalkoxy)-3beta-(3'-((Z)-2-haloethenyl)phenyl)nortropanes: candidate radioligands for in vivo imaging of the serotonin transporter with positron emission tomography” (J Med Chem, 2008)"}
{"test_system": "not listed separately", "experiment": "Drug uptake in anesthetized cynomolgus monkey brain occipital lobe after 205 mins postinjection", "format": "ADME, organism-based, Macaca fascicularis", "conditions": "in vivo"}
{"smiles": "O=C(OCC[18F])C1C2CCC(CC1c1cccc(/C=C\\Br)c1)N2", "note": "(centres undefined)", "Drug uptake": 2.28}
{"test_system": "Putamen", "experiment": "Drug uptake in anesthetized cynomolgus monkey brain putamen after 22.5 mins postinjection", "format": "ADME, organism-based, Macaca fascicularis", "parameters": "unit not given here", "conditions": "in vivo, 0.375 h"}
{"smiles": "O=C(OCC[18F])C1C2CCC(CC1c1cccc(/C=C\\Br)c1)N2", "note": "(centres undefined)", "Drug uptake": 4.33}
{"test_system": "not listed separately", "experiment": "Ratio of drug uptake in pons to cerebellum in anesthetized cynomolgus monkey after 185 mins postinjection", "format": "ADME, organism-based, Macaca fascicularis", "conditions": "in vivo"}
{"smiles": "O=C(OCC[18F])C1C2CCC(CC1c1cccc(/C=C\\Br)c1)N2", "note": "(centres undefined)", "Ratio": 1.9}
{"test_system": "Medulla", "experiment": "Drug uptake in anesthetized cynomolgus monkey brain medulla after 55 mins postinjection", "format": "ADME, organism-based, Macaca fascicularis", "conditions": "in vivo"}
{"smiles": "O=C(OCC[18F])C1C2CCC(CC1c1cccc(/C=C\\Br)c1)N2", "note": "(centres undefined)", "Drug uptake": 4.82}
{"test_system": "not listed separately", "experiment": "Ratio of drug uptake in thalamus to cerebellum in anesthetized cynomolgus monkey after 135 mins postinjection", "format": "ADME, organism-based, Macaca fascicularis", "conditions": "in vivo, 2.25 h"}
{"smiles": "O=C(OCC[18F])C1C2CCC(CC1c1cccc(/C=C\\Br)c1)N2", "note": "(centres undefined)", "Ratio": 1.7}
{"test_system": "Pons", "experiment": "Drug uptake in anesthetized cynomolgus monkey brain pons after 235 mins postinjection", "format": "ADME, organism-based, Macaca fascicularis", "conditions": "in vivo"}
{"smiles": "O=C(OCC[18F])C1C2CCC(CC1c1cccc(/C=C\\Br)c1)N2", "note": "(centres undefined)", "Drug uptake": 3.08}
{"test_system": "Pons", "experiment": "Drug uptake in anesthetized cynomolgus monkey brain pons after 22.5 mins postinjection", "format": "ADME, organism-based, Macaca fascicularis", "conditions": "in vivo, 0.375 h"}
{"smiles": "O=C(OCC[18F])C1C2CCC(CC1c1cccc(/C=C\\Br)c1)N2", "note": "(centres undefined)", "Drug uptake": 3.81}
{"test_system": "Caudate", "experiment": "Drug uptake in anesthetized cynomolgus monkey brain caudate after 22.5 mins postinjection", "format": "ADME, organism-based, Macaca fascicularis, Caudate nucleus", "conditions": "in vivo, 0.375 h"}
{"smiles": "O=C(OCC[18F])C1C2CCC(CC1c1cccc(/C=C\\Br)c1)N2", "note": "(centres undefined)", "Drug uptake": 3.22}
{"test_system": "not listed separately", "experiment": "Drug uptake in anesthetized cynomolgus monkey brain occipital lobe after 115 mins postinjection", "format": "ADME, organism-based, Macaca fascicularis", "conditions": "in vivo"}
{"smiles": "O=C(OCC[18F])C1C2CCC(CC1c1cccc(/C=C\\Br)c1)N2", "note": "(centres undefined)", "Drug uptake": 3.02}
{"test_system": "Putamen", "experiment": "Drug uptake in anesthetized cynomolgus monkey brain putamen after 4.5 mins postinjection", "format": "ADME, organism-based, Macaca fascicularis", "parameters": "unit not given here", "conditions": "in vivo, 0.075 h"}
{"smiles": "O=C(OCC[18F])C1C2CCC(CC1c1cccc(/C=C\\Br)c1)N2", "note": "(centres undefined)", "Drug uptake": 1.72}
{"test_system": "not listed separately", "experiment": "Drug uptake in anesthetized cynomolgus monkey brain occipital lobe after 75 mins postinjection", "format": "ADME, organism-based, Macaca fascicularis", "conditions": "in vivo, 1.25 h"}
{"smiles": "O=C(OCC[18F])C1C2CCC(CC1c1cccc(/C=C\\Br)c1)N2", "note": "(centres undefined)", "Drug uptake": 3.49}
{"test_system": "Medulla", "experiment": "Drug uptake in anesthetized cynomolgus monkey brain medulla after 135 mins postinjection", "format": "ADME, organism-based, Macaca fascicularis", "conditions": "in vivo, 2.25 h"}
{"smiles": "O=C(OCC[18F])C1C2CCC(CC1c1cccc(/C=C\\Br)c1)N2", "note": "(centres undefined)", "Drug uptake": 4.21}
{"test_system": "Caudate", "experiment": "Drug uptake in anesthetized cynomolgus monkey brain caudate after 6.5 mins postinjection", "format": "ADME, organism-based, Macaca fascicularis, Caudate nucleus", "conditions": "in vivo"}
{"smiles": "O=C(OCC[18F])C1C2CCC(CC1c1cccc(/C=C\\Br)c1)N2", "note": "(centres undefined)", "Drug uptake": 1.92}
{"test_system": "Putamen", "experiment": "Drug uptake in anesthetized cynomolgus monkey brain putamen after 175 mins postinjection", "format": "ADME, organism-based, Macaca fascicularis", "conditions": "in vivo"}
{"smiles": "O=C(OCC[18F])C1C2CCC(CC1c1cccc(/C=C\\Br)c1)N2", "note": "(centres undefined)", "Drug uptake": 3.76}
{"test_system": "not listed separately", "experiment": "Drug uptake in anesthetized cynomolgus monkey brain occipital lobe after 3.5 mins postinjection", "format": "ADME, organism-based, Macaca fascicularis", "conditions": "in vivo"}
{"smiles": "O=C(OCC[18F])C1C2CCC(CC1c1cccc(/C=C\\Br)c1)N2", "note": "(centres undefined)", "Drug uptake": 0.64}
{"test_system": "not listed separately", "experiment": "Drug uptake in anesthetized cynomolgus monkey brain occipital lobe after 225 mins postinjection", "format": "ADME, organism-based, Macaca fascicularis", "conditions": "in vivo, 3.75 h"}
{"smiles": "O=C(OCC[18F])C1C2CCC(CC1c1cccc(/C=C\\Br)c1)N2", "note": "(centres undefined)", "Drug uptake": 1.95}
{"test_system": "Thalamus", "experiment": "Drug uptake in anesthetized cynomolgus monkey brain thalamus after 9.5 mins postinjection", "format": "ADME, organism-based, Macaca fascicularis", "parameters": "unit not given here", "conditions": "in vivo"}
{"smiles": "O=C(OCC[18F])C1C2CCC(CC1c1cccc(/C=C\\Br)c1)N2", "note": "(centres undefined)", "Drug uptake": 2.83}
{"test_system": "Caudate", "experiment": "Drug uptake in anesthetized cynomolgus monkey brain caudate after 135 mins postinjection", "format": "ADME, organism-based, Macaca fascicularis, Caudate nucleus", "conditions": "in vivo, 2.25 h"}
{"smiles": "O=C(OCC[18F])C1C2CCC(CC1c1cccc(/C=C\\Br)c1)N2", "note": "(centres undefined)", "Drug uptake": 3.74}
{"test_system": "Medulla", "experiment": "Drug uptake in anesthetized cynomolgus monkey brain medulla after 9.5 mins postinjection", "format": "ADME, organism-based, Macaca fascicularis", "conditions": "in vivo"}
{"smiles": "O=C(OCC[18F])C1C2CCC(CC1c1cccc(/C=C\\Br)c1)N2", "note": "(centres undefined)", "Drug uptake": 3.76}
{"test_system": "Pons", "experiment": "Drug uptake in anesthetized cynomolgus monkey brain pons after 3.5 mins postinjection", "format": "ADME, organism-based, Macaca fascicularis", "conditions": "in vivo"}
{"smiles": "O=C(OCC[18F])C1C2CCC(CC1c1cccc(/C=C\\Br)c1)N2", "note": "(centres undefined)", "Drug uptake": 0.82}
{"test_system": "Medulla", "experiment": "Drug uptake in anesthetized cynomolgus monkey brain medulla after 225 mins postinjection", "format": "ADME, organism-based, Macaca fascicularis", "conditions": "in vivo, 3.75 h"}
{"smiles": "O=C(OCC[18F])C1C2CCC(CC1c1cccc(/C=C\\Br)c1)N2", "note": "(centres undefined)", "Drug uptake": 2.67}
{"test_system": "Pons", "experiment": "Drug uptake in anesthetized cynomolgus monkey brain pons after 95 mins postinjection", "format": "ADME, organism-based, Macaca fascicularis", "conditions": "in vivo"}
{"smiles": "O=C(OCC[18F])C1C2CCC(CC1c1cccc(/C=C\\Br)c1)N2", "note": "(centres undefined)", "Drug uptake": 4.36}
{"test_system": "Thalamus", "experiment": "Drug uptake in anesthetized cynomolgus monkey brain thalamus after 35 mins postinjection", "format": "ADME, organism-based, Macaca fascicularis", "parameters": "unit not given here", "conditions": "in vivo"}
{"smiles": "O=C(OCC[18F])C1C2CCC(CC1c1cccc(/C=C\\Br)c1)N2", "note": "(centres undefined)", "Drug uptake": 3.89}
{"test_system": "not listed separately", "experiment": "Drug uptake in anesthetized cynomolgus monkey brain occipital lobe after 175 mins postinjection", "format": "ADME, organism-based, Macaca fascicularis", "conditions": "in vivo"}
{"smiles": "O=C(OCC[18F])C1C2CCC(CC1c1cccc(/C=C\\Br)c1)N2", "note": "(centres undefined)", "Drug uptake": 2.42}
{"test_system": "Caudate", "experiment": "Drug uptake in anesthetized cynomolgus monkey brain caudate after 185 mins postinjection", "format": "ADME, organism-based, Macaca fascicularis, Caudate nucleus", "conditions": "in vivo"}
{"smiles": "O=C(OCC[18F])C1C2CCC(CC1c1cccc(/C=C\\Br)c1)N2", "note": "(centres undefined)", "Drug uptake": 3.28}
{"test_system": "not listed separately", "experiment": "Ratio of drug uptake in pons to cerebellum in anesthetized cynomolgus monkey after 215 mins postinjection", "format": "ADME, organism-based, Macaca fascicularis", "conditions": "in vivo"}
{"smiles": "O=C(OCC[18F])C1C2CCC(CC1c1cccc(/C=C\\Br)c1)N2", "note": "(centres undefined)", "Ratio": 1.8}
{"test_system": "not listed separately", "experiment": "Ratio of drug uptake in frontal lobe to cerebellum in anesthetized cynomolgus monkey after 195 mins postinjection", "format": "ADME, organism-based, Macaca fascicularis", "conditions": "in vivo, 3.25 h"}
{"smiles": "O=C(OCC[18F])C1C2CCC(CC1c1cccc(/C=C\\Br)c1)N2", "note": "(centres undefined)", "Ratio": 1.2}
{"test_system": "not listed separately", "experiment": "Drug uptake in anesthetized cynomolgus monkey brain frontal lobe after 225 mins postinjection", "format": "ADME, organism-based, Macaca fascicularis", "conditions": "in vivo, 3.75 h"}
{"smiles": "O=C(OCC[18F])C1C2CCC(CC1c1cccc(/C=C\\Br)c1)N2", "note": "(centres undefined)", "Drug uptake": 1.88}
{"test_system": "not listed separately", "experiment": "Ratio of drug uptake in medulla to cerebellum in anesthetized cynomolgus monkey after 195 mins postinjection", "format": "ADME, organism-based, Macaca fascicularis", "conditions": "in vivo, 3.25 h"}
{"smiles": "O=C(OCC[18F])C1C2CCC(CC1c1cccc(/C=C\\Br)c1)N2", "note": "(centres undefined)", "Ratio": 1.9}
{"test_system": "Pons", "experiment": "Drug uptake in anesthetized cynomolgus monkey brain pons after 115 mins postinjection", "format": "ADME, organism-based, Macaca fascicularis", "conditions": "in vivo"}
{"smiles": "O=C(OCC[18F])C1C2CCC(CC1c1cccc(/C=C\\Br)c1)N2", "note": "(centres undefined)", "Drug uptake": 4.51}
{"test_system": "Pons", "experiment": "Drug uptake in anesthetized cynomolgus monkey brain pons after 4.5 mins postinjection", "format": "ADME, organism-based, Macaca fascicularis", "conditions": "in vivo, 0.075 h"}
{"smiles": "O=C(OCC[18F])C1C2CCC(CC1c1cccc(/C=C\\Br)c1)N2", "note": "(centres undefined)", "Drug uptake": 1.78}
{"test_system": "Medulla", "experiment": "Drug uptake in anesthetized cynomolgus monkey brain medulla after 125 mins postinjection", "format": "ADME, organism-based, Macaca fascicularis", "conditions": "in vivo"}
{"smiles": "O=C(OCC[18F])C1C2CCC(CC1c1cccc(/C=C\\Br)c1)N2", "note": "(centres undefined)", "Drug uptake": 4.14}
{"test_system": "not listed separately", "experiment": "Ratio of drug uptake in putamen to cerebellum in anesthetized cynomolgus monkey after 6.5 mins postinjection", "format": "ADME, organism-based, Macaca fascicularis", "conditions": "in vivo"}
{"smiles": "O=C(OCC[18F])C1C2CCC(CC1c1cccc(/C=C\\Br)c1)N2", "note": "(centres undefined)", "Ratio": 1.1}
{"test_system": "Medulla", "experiment": "Drug uptake in anesthetized cynomolgus monkey brain medulla after 45 mins postinjection", "format": "ADME, organism-based, Macaca fascicularis", "conditions": "in vivo, 0.75 h"}
{"smiles": "O=C(OCC[18F])C1C2CCC(CC1c1cccc(/C=C\\Br)c1)N2", "note": "(centres undefined)", "Drug uptake": 4.87}
